In patent publication US6770290B1, “Amphotericin B liposome preparation” (priority 1987, dated 2004):

Test system: Candida albicans
Experiment: Therapeutic efficacy in C. albicans infected mice
Type: in vivo
Conditions: single dose 3 days post infection; for 29 SURVIVORS (%) / surviving mice at day 29 post infection: n = 8 per group
Experimental: 360.1 mg of the spray dried powder were hydrated at 65 degrees Centigrade for 40 minutes with 9% lactose containing 10 mM succinate buffer, pH 5.62. Liposomes were prepared by sonication for four minutes with a ½ probe at 65° C. under a nitrogen atmosphere. Three successive batches of liposomes were prepared in a similar fashion. After sterile filtration, the Amphotericin B concentration was determined to be 1.73 mg/ml.
For therapeutic efficacy studies, groups of 8 mice were given intravenous inoculations of 3.5×10^5 Candida albicans yeast cells. Three days post-infection, animals were treated with a single dose of either free Amphotericin B or liposomal Amphotericin B. A severe systemic infection existed in animals which were not treated until three days post infection. Each successive group was treated with an increasing dose of medicament in order to establish a dose response relationship. Twenty-nine days after infection the study was evaluated for surviving animals. All untreated control animals had died by 8 days post-infection, with a median survival of 7 days. […] In contrast, all animals treated with 10 or 15 mg/kg of liposomal Amphotericin B were still alive […] post infection.

In the case of `C[C@@H]1[C@H](O)[C@@H](C)/C=C/C=C/C=C/C=C/C=C/C=C/C=C/[C@H](O[C@@H]2O[C@H](C)[C@@H](O)[C@H](N)[C@@H]2O)C[C@@H]2O[C@](O)(C[C@@H](O)C[C@@H](O)[C@H](O)CC[C@@H](O)C[C@@H](O)CC(=O)O[C@H]1C)C[C@H](O)[C@H]2C(=O)O` [FREE AM B, Amphotericin B], the “29 SURVIVORS (%)” value (AMB dose 0.5 mg/kg) is reported as “(0%)”, the “surviving mice at day 29 post infection” value (AMB dose 0.5 mg/kg) is reported as 0 and the “29 SURVIVORS (%)” value (AMB dose 1.0 mg/kg) is reported as “(0%)”. The “surviving mice at day 29 post infection” value (AMB dose 1.0 mg/kg) was 0, the “29 SURVIVORS (%)” value (AMB dose 1.5 mg/kg) was “(0%)” and the “surviving mice at day 29 post infection” value (AMB dose 1.5 mg/kg) was 0. The “survivors at 29 days post infection” value (any dose level) was “no dose level of free Amphotericin B which produced any survivors”.
